Results: patent US20250277059A1, “ANTIBODY USED TO TREAT CORONAVIRUS INFECTION” (priority 2022, published 2025)

What was measured:
[1] = test system: pseudo-typed virus having S protein of SARS COV_2 S VOC202012/01 (B.1.1.7: α variant); type: cell-based, SARS-COV-2
[2] = test system: pseudo-typed virus having S protein of SARS COV_2 S 501Y.V2 (B.1.351: β variant); type: cell-based, SARS-COV-2

**Q.** Which “infection inhibiting effect on α variant-type virus” value [1] does the source give for N=C(N)c1ccc2cc(OC(=O)c3ccc(N=C(N)N)cc3)ccc2c1 [Nafamostat, nafamostat] here?
**A.** exhibited infection inhibiting effects

**Q.** What about the “infection inhibiting effect on β variant-type virus” value [2] of the same molecule?
**A.** exhibited infection inhibiting effects
